From US7642245B2, “Antibacterial compounds having a (pyrrole carboxamide)-(benzamide)-(imidazole carboxamide) motif” (Oscient Pharmaceuticals Corporation, priority 2002, dated 2010)

Assays:
[1] = tested on: C. albicans ATCC 38247; experiment: MIC, antifungal assay; assay type: cell-based, Candida albicans; settings: F = C. albicans ATCC 38247
Text: (§1) In vitro biological activity data were collected for a variety of microorganisms, including Staphylococcus aureus (ATCC 27660, a methicillin resistant strain (MRSA); ATCC 13709, a methicillin sensitive strain (MSSA)), Enterococcus faecalis (ATCC 29212), Bacillus cereus (ATCC 11778), Streptococcus pneumoniae (ATCC 49619), Candida albicans (ATCC 38247), Escherichia coli (ATCC 25922), and Moraxella (now Branhamella) catarrhalis (ATCC 25238).
(§2) The minimal inhibition concentration (MIC) of these compounds was determined using the National Committee for Clinical Laboratory Standards (NCCLS) broth microdilution assay in microtiter plates, as set forth in: (1) the guidelines of the National Committee for Clinical Laboratory Standards (NCCLS) Document M7-A4 (NCCLS, 1997); (2) the guidelines of the National Committee for Clinical Laboratory Standards (NCCLS) Document M11-A4 (NCCLS, 1997); and (3) the guidelines and reference method of the National Committee for Clinical Laboratory Standards (NCCLS) Document M27-T (NCCLS, 1995). For antifungal assays, the method recommended in Murray, P R., 1995 Manual of Clinical Microbiology (ASM Press, Washington, DC.), was employed.

[2] = tested on: E. coli ATCC 25922; experiment: MIC, NCCLS broth microdilution; assay type: cell-based, Escherichia coli; settings: G = E. coli ATCC 25922
Text: as §1, §2

[3] = tested on: S. aureus ATCC 13709; experiment: MIC, NCCLS broth microdilution; assay type: cell-based, Staphylococcus aureus; settings: A = S. aureus ATCC 13709 (MSSA)
Text: as §1, §2

[4] = tested on: S. aureus ATCC 27660; experiment: MIC, NCCLS broth microdilution; assay type: cell-based, Staphylococcus aureus; settings: B = S. aureus ATCC 27660 (MRSA)
Text: as §1, §2

[5] = tested on: E. faecalis ATCC 29212; experiment: MIC, NCCLS broth microdilution; assay type: cell-based, Enterococcus faecalis; settings: C = E. faecalis ATCC 29212
Text: as §1, §2

[6] = tested on: S. pneumoniae ATCC 49619; experiment: MIC, NCCLS broth microdilution; assay type: cell-based, Streptococcus pneumoniae; settings: E = S. pneumoniae ATCC 49619
Text: as §1, §2

[7] = tested on: M. catarrhalis (ATCC 25238); experiment: MIC, NCCLS broth microdilution; assay type: cell-based, Moraxella (now Branhamella) catarrhalis; settings: H = M. catarrhalis (ATCC 25238)
Text: as §1, §2

[8] = tested on: B. cereus ATCC 11778; experiment: MIC, NCCLS broth microdilution; assay type: cell-based, Bacillus cereus; settings: D = B. cereus ATCC 11778
Text: as §1, §2

| Compound | Minimum Inhibitory Concentration (MIC) [1] | Minimum Inhibitory Concentration (MIC) [2] | Minimum Inhibitory Concentration (MIC) [3] | Minimum Inhibitory Concentration (MIC) [4] | Minimum Inhibitory Concentration (MIC) [5] | Minimum Inhibitory Concentration (MIC) [6] | Minimum Inhibitory Concentration (MIC) [7] | Minimum Inhibitory Concentration (MIC) [8] |
| --- | --- | --- | --- | --- | --- | --- | --- | --- |
| Cn1cc(NC(=O)c2cc3ccccc3cn2)cc1C(=O)Nc1ccc(C(=O)Nc2cn(C)c(C(=O)NCCN3CCC(O)CC3)n2)cc1 [Compound A-19] | >32 µg/mL | + (12 ≦ MIC ≦ 32 μg/mL) | +++ (MIC ≦ 4 μg/mL) | +++ (MIC ≦ 4 μg/mL) | +++ (MIC ≦ 4 μg/mL) | +++ (MIC ≦ 4 μg/mL) | +++ (MIC ≦ 4 μg/mL) | +++ (MIC ≦ 4 μg/mL) |
| Cn1cc(NC(=O)c2cc3ccccc3cn2)cc1C(=O)Nc1ccc(C(=O)Nc2cn(C)c(C(=O)NCCN3CCC(OC(=O)CNC(=O)OC(C)(C)C)CC3)n2)cc1 [Compound A-66] | >32 µg/mL | >32 µg/mL | +++ (MIC ≦ 4 μg/mL) | +++ (MIC ≦ 4 μg/mL) | +++ (MIC ≦ 4 μg/mL) | +++ (MIC ≦ 4 μg/mL) | +++ (MIC ≦ 4 μg/mL) | +++ (MIC ≦ 4 μg/mL) |
| Cn1cc(NC(=O)c2cc3ccccc3cn2)cc1C(=O)Nc1ccc(C(=O)Nc2cn(C)c(C(=O)NCCNCCOCCOCCN)n2)cc1 [Compound A-42] | + (12 ≦ MIC ≦ 32 μg/mL) | >32 µg/mL | +++ (MIC ≦ 4 μg/mL) | +++ (MIC ≦ 4 μg/mL) | +++ (MIC ≦ 4 μg/mL) | + (12 ≦ MIC ≦ 32 μg/mL) | >32 µg/mL | ++ (4 < MIC < 12 μg/mL) |
| Cn1cc(NC(=O)c2cc3ccccc3cn2)cc1C(=O)Nc1ccc(C(=O)Nc2cn(C)c(C(=O)NCCN3CCC(O)C3)n2)cc1 (stereo not drawn) [Compound A-70] | >32 µg/mL | +++ (MIC ≦ 4 μg/mL) | +++ (MIC ≦ 4 μg/mL) | +++ (MIC ≦ 4 μg/mL) | +++ (MIC ≦ 4 μg/mL) | +++ (MIC ≦ 4 μg/mL) | +++ (MIC ≦ 4 μg/mL) | +++ (MIC ≦ 4 μg/mL) |
| Cn1cc(NC(=O)c2nccc3ccccc23)cc1C(=O)Nc1ccc(C(=O)Nc2cn(C)c(C(=O)NCCN3CCC(O)CC3)n2)cc1 [Compound A-5] | >32 µg/mL | >32 µg/mL | +++ (MIC ≦ 4 μg/mL) | +++ (MIC ≦ 4 μg/mL) | +++ (MIC ≦ 4 μg/mL) | +++ (MIC ≦ 4 μg/mL) | >32 µg/mL | +++ (MIC ≦ 4 μg/mL) |
| Cn1cc(NC(=O)c2cc3ccccc3cn2)cc1C(=O)Nc1ccc(C(=O)Nc2cn(C)c(C(=O)NCCN3CCSCC3)n2)cc1 [Compound A-18] | >32 µg/mL | >32 µg/mL | +++ (MIC ≦ 4 μg/mL) | +++ (MIC ≦ 4 μg/mL) | +++ (MIC ≦ 4 μg/mL) | +++ (MIC ≦ 4 μg/mL) | +++ (MIC ≦ 4 μg/mL) | +++ (MIC ≦ 4 μg/mL) |
